Data from article PMC6792352, “Limited Chemical Structural Diversity Found to Modulate Thyroid Hormone Receptor in the Tox21 Chemical Library” (Environmental Health Perspectives, 2019).
Where a name gives a salt, the structure may show the parent alone.

Experiment: in vitro
Conditions: rat, gh3-tre-luc cells, AC50 (uM) modified / 1000

OCC#CCO [2-Butyne-1,4-diol] and C=COCCCCO [4-(Ethenyloxy)butan-1-ol] cannot be ordered by CC50 at 24 h: > 90 µM for the first, > 90 µM for the second.

Compared with O=[N+]([O-])c1cc(C(F)(F)F)c(Cl)c([N+](=O)[O-])c1Cl [2,4-Dichloro-1,3-dinitro-5-(trifluoromethyl)benzene], Cc1ccccc1[N+](=O)[O-] [2-Nitrotoluene] is higher in CC50 at 24 h: 2.31 µM for the first, > 90 µM for the second.

COc1ccc(NC(C)=O)cc1N [N-(3-Amino-4-methoxyphenyl)acetamide] and CC(=O)Oc1ccccc1C(N)=O [Acetylsalicylamide] cannot be ordered by CC50 at 24 h: > 90 µM for the first, > 50 µM for the second.

Cc1ccc(S(=O)(=O)O)c(C)c1 [Sodium m-xylene-4-sulfonate] and Cc1ccc(S(N)(=O)=O)cc1 [4-Toluenesulfonamide] cannot be ordered by CC50 at 24 h: > 90 µM for the first, > 90 µM for the second.

Compared with OCC(O)[C@@H](O)[C@H](O)[C@H](O)CO[C@H]1O[C@H](CO)[C@@H](O)[C@H](O)[C@H]1O (some centres unmarked) [Isomalt], CCCCCCCCCCCCCCCCC(C(=O)O)C(O)(CC(=O)O)C(=O)O (centres unmarked) [Agaric acid] is lower in CC50 at 24 h: > 90 µM for the first, 29.5 µM for the second.

O=CCc1ccccc1 [Phenylacetaldehyde] and O=C(Cl)c1ccccc1F [2-Fluorobenzoyl chloride] cannot be ordered by CC50 at 24 h: > 90 µM for the first, > 90 µM for the second.

CC(C)c1cc2c(cc1S(=O)(=O)O)[C@@]1(C)CCC[C@@](C)(C(=O)O)[C@@H]1CC2 [Ecabet] and Cc1nnc(C(C)C)n1[C@@H]1C[C@H]2CC[C@@H](C1)N2CC[C@H](NC(=O)C1CCC(F)(F)CC1)c1ccccc1 [Maraviroc] cannot be ordered by CC50 at 24 h: > 50 µM for the first, > 50 µM for the second.

Going from CC/C(=N\OC/C=C/Cl)C1=C(O)CC(C2CCOCC2)CC1=O (centres unmarked) [Tepraloxydim] to O=C(CCN1CCC(c2ccccc2)C1)c1ccc2c(c1)OCCO2 (centres unmarked) [Proroxan], the CC50 at 24 h falls from > 90 µM to 38.9 µM.

Nc1ccc(Oc2ccc(N)c(N)c2)cc1 [3,4,4'-Triaminodiphenyl ether] and Cc1nc2ccc(CN(C)c3ccc(C(=O)N[C@@H](CCC(=O)O)C(=O)O)s3)cc2c(=O)[nH]1 [Raltitrexed] cannot be ordered by CC50 at 24 h: 75.2 µM for the first, > 50 µM for the second.

CC1(C)S[C@@H]2[C@H](NC(=O)[C@H](N)c3ccccc3)C(=O)N2[C@H]1C(=O)O [Ampicillin trihydrate] and CC(C)(C)c1nnc(NS(=O)(=O)c2ccccc2)s1 [Glybuzole] cannot be ordered by CC50 at 24 h: > 90 µM for the first, > 50 µM for the second.

O=C(O)c1ccco1 [2-Furancarboxylic acid] and CC(=O)c1cccnc1 [3-Acetylpyridine] cannot be ordered by CC50 at 24 h: > 90 µM for the first, > 90 µM for the second.

O=C=NCCCCCCN=C=O [1,6-Diisocyanatohexane] and CCCCCCCC/C=C/CCCCCCCC(=O)OCCO [Polyoxyethylene monoleate] cannot be ordered by CC50 at 24 h: > 90 µM for the first, > 100 µM for the second.

Going from CCCCCCCCCCCCCC[P+](CCCCCC)(CCCCCC)CCCCCC [Trihexyltetradecylphosphonium chloride] to CN(C)CCCCl [Dimethylaminopropyl chloride hydrochloride], the CC50 at 24 h rises from 5.15 µM to > 100 µM.

Going from O=Cc1c(Cl)cccc1Cl [2,6-Dichlorobenzaldehyde] to c1ccc2c(c1)OCC(C1=NCCN1)O2 (centres unmarked) [Idazoxan], the CC50 at 24 h falls from > 90 µM to 7.8 µM.

For CC(C)=CC(=O)C=C(C)C [Phorone], the CC50 at 24 h was > 90 µM.

Same assay, conditions: rat, gh3-tre-luc cells, AC50 (uM) modified / 1000, Tox21_110001=Tox21_110809; viability, 1 nM T3 present, 24 h

With CC[C@@H](CO)NC(=O)[C@@H]1C=C2c3cccc4[nH]cc(c34)C[C@H]2N(C)C1 [Methergine] the CC50 at 24 h was > 50 µM.

Same assay, conditions: rat, gh3-tre-luc cells, AC50 (uM) modified / 1000, Tox21_110001=Tox21_110993; viability, 1 nM T3 present, 24 h

In the case of COP(=S)(OC)SCN1C(=O)c2ccccc2C1=O [Phosmet], the CC50 at 24 h is reported as > 50 µM.

Same assay, conditions: rat, gh3-tre-luc cells, AC50 (uM) modified / 1000, Tox21_110001=Tox21_112016; viability, 1 nM T3 present, 24 h

Molecule CC(C)(C)NCC(O)c1cc(Cl)c(N)c(Cl)c1 (centres unmarked) [Clenbuterol] has a CC50 at 24 h of 31.8 µM.

Same assay, conditions: rat, gh3-tre-luc cells, AC50 (uM) modified / 1000, Tox21_110001=Tox21_112842; viability, 1 nM T3 present, 24 h

With COc1cc(CC(C)N)cc2c1OCO2 (centres unmarked) [1-(7-Methoxy-1,3-benzodioxol-5-yl)propan-2-amine hydrochloride] the CC50 at 24 h was > 100 µM.

Same assay, conditions: rat, gh3-tre-luc cells, AC50 (uM) modified / 1000, Tox21_110001=Tox21_201288; viability, 1 nM T3 present, 24 h

With Brc1ccc(Br)cc1 [1,4-Dibromobenzene] the CC50 at 24 h was > 90 µM.

Same assay, conditions: rat, gh3-tre-luc cells, AC50 (uM) modified / 1000, Tox21_110001=Tox21_201906; viability, 1 nM T3 present, 24 h

For Nc1ccc(-c2ccc(N)c(Cl)c2)cc1Cl [3,3'-Dichlorobenzidine dihydrochloride], the CC50 at 24 h was 76.5 µM.

Same assay, conditions: rat, gh3-tre-luc cells, AC50 (uM) modified / 1000, Tox21_110001=Tox21_202316; viability, 1 nM T3 present, 24 h

For COP(=S)(OC)SCN1C(=O)c2ccccc2C1=O [Phosmet], the CC50 at 24 h was > 90 µM.

Same assay, conditions: rat, gh3-tre-luc cells, AC50 (uM) modified / 1000, Tox21_110001=Tox21_301050; viability, 1 nM T3 present, 24 h

Work on C[C@H]1[C@H](c2ccc(Cl)cc2)SC(=O)N1C(=O)NC1CCCCC1 [Hexythiazox] yielded a CC50 at 24 h of 67.8 µM.

Same assay, conditions: rat, gh3-tre-luc cells, AC50 (uM) modified / 1000, Tox21_110001=Tox21_302894; viability, 1 nM T3 present, 24 h

For Nc1ccc(-c2ccc(N)c(Cl)c2)cc1Cl [3,3'-Dichlorobenzidine dihydrochloride], the CC50 at 24 h was 20.3 µM.
